The record followed here is PubChem BioAssay AID651630 (Sanford-Burnham Center for Chemical Genomics, 2012).

For one assay, the system named is TAG. As to the kind of experiment: triacylglycerol accumulation inhibitor potency, dose response, cell-based, panel, Nile Red and DAPI fluorescence, H9c2 (AID 651630).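 Note: cells exposed to compound overnight before fixation and staining.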 Particulars: H9c2 cells, Nile Red TAG fluorescence, oleic acid.
The subject of a further assay is DAPI. The description is as above. Particulars: H9c2 cells, DAPI nuclear fluorescence (cytotoxicity counter-readout), oleic acid.

Each structure is given as a SMILES string. The source made the active and inactive calls.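 Rule for the calls: active = lipid-stain IC50 at or below a set limit, with nuclear-stain toxicity IC50 at least five times higher; inactive = the rest.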

`CCCC(=O)Nc1nc2ccc(NC(=O)c3ccccc3F)cc2s1`: the IC50 (usually the midpoint of a concentration-inhibition curve) with TAG (mean of runs) is 13 µM; with TAG (run 1), 12.4 µM; in the assay with TAG (run 2), 13.6 µM. The values for the IC50 cytotoxicity (DAPI nuclear signal decrease) in the assay on DAPI (mean of runs), with DAPI (run 1) and in the assay on DAPI (run 2) were > 25 µM (inactive), over 25 µM and over 25 µM, respectively.
`CCOc1ccc(S(=O)(=O)NCc2ccccn2)cc1NC(=O)c1ccccc1`: the IC50 was > 25 µM (inactive) in the assay on TAG (mean of runs), over 25 µM with TAG (run 1) and over 25 µM in the assay with TAG (run 2). Moreover, the IC50 cytotoxicity (DAPI nuclear signal decrease) in the assay with DAPI (mean of runs) was > 25 µM (inactive); in the assay on DAPI (run 1), over 25 µM; in the assay on DAPI (run 2), over 25 µM.
Take `CC(C)(C)NC(=O)C(c1ccc(-c2ccccc2)cc1)N(C[C@H]1CC[C@@H]([C@@H]2CC[C@H](CO)O2)O1)C(=O)c1ccc2ccccc2c1` (stereo partly drawn): the IC50 was 5.56 µM in the assay on TAG (mean of runs), 4.96 µM in the assay with TAG (run 1) and 6.16 µM with TAG (run 2). Besides, the figures for the IC50 cytotoxicity (DAPI nuclear signal decrease) in the assay on DAPI (mean of runs), with DAPI (run 1) and in the assay on DAPI (run 2) were > 25 µM (inactive), over 25 µM and over 25 µM, respectively.
Regarding `CCOc1ccc(C(=O)Nc2nnc(NC(=S)Nc3ccccc3)s2)cc1`, the IC50 in the assay with TAG (run 1) was over 25 µM; in the assay with TAG (run 2) it was 23 µM. The results for the IC50 cytotoxicity (DAPI nuclear signal decrease) in the assay on DAPI (mean of runs), with DAPI (run 1) and with DAPI (run 2) were > 25 µM (inactive), over 25 µM and over 25 µM, respectively.
In the case of `C=C1c2nc3ccccc3n2C=C(c2ccc(C)cc2)N1c1ccccc1`, the results for the IC50 in the assay on TAG (mean of runs), in the assay with TAG (run 1) and with TAG (run 2) were 16.5 µM (inactive), 10.9 µM and 22.2 µM, respectively. For the same compound, the IC50 cytotoxicity (DAPI nuclear signal decrease) in the assay with DAPI (mean of runs) is > 25 µM (inactive); with DAPI (run 1) it was over 25 µM; with DAPI (run 2) it was over 25 µM.
Take `CCOc1ccc(CCNC(=O)CN(C)S(=O)(=O)c2cccc3nsnc23)cc1OCC`: the IC50 with TAG (mean of runs) was 17.5 µM (inactive); in the assay with TAG (run 1), 14.2 µM; in the assay on TAG (run 2), 20.8 µM. Moreover, the IC50 cytotoxicity (DAPI nuclear signal decrease) with DAPI (mean of runs) is > 25 µM (inactive); in the assay on DAPI (run 1), over 25 µM; in the assay on DAPI (run 2), over 25 µM.
Turning to `C[C@H](O)C#Cc1ccc2c(c1)O[C@@H](CN(C)Cc1ccc(-c3ccccc3)cc1)[C@H](C)CN([C@@H](C)CO)S2(=O)=O`, the IC50 in the assay with TAG (run 1) is over 25 µM; with TAG (run 2), 17.9 µM. The IC50 cytotoxicity (DAPI nuclear signal decrease) was > 25 µM (inactive) in the assay with DAPI (mean of runs), over 25 µM in the assay on DAPI (run 1) and over 25 µM in the assay on DAPI (run 2).
`C=CC[C@@H](CC(=O)N(CCO)Cc1ccccc1)C(=O)N[C@H](COC(=O)[C@@H](CC=C)Cc1ccc(F)cc1)Cc1ccccc1`: the figures for the IC50 in the assay on TAG (mean of runs), with TAG (run 1) and in the assay on TAG (run 2) were 6.97 µM, 7.28 µM and 6.67 µM, respectively. In addition, the results for the IC50 cytotoxicity (DAPI nuclear signal decrease) in the assay with DAPI (mean of runs), with DAPI (run 1) and in the assay with DAPI (run 2) were > 25 µM (inactive), over 25 µM and over 25 µM, respectively.
Turning to `C=CC[C@@H](CC(=O)N(CCO)Cc1ccccc1)C(=O)N[C@H](COC(=O)[C@@H](CC=C)Cc1ccc(F)cc1)Cc1c[nH]c2ccccc12`, the IC50 with TAG (mean of runs) is 8.92 µM; in the assay on TAG (run 1), 7.83 µM; in the assay on TAG (run 2), 10 µM. Further, the IC50 cytotoxicity (DAPI nuclear signal decrease) in the assay with DAPI (mean of runs) was > 25 µM (inactive); in the assay with DAPI (run 1) it was over 25 µM; in the assay on DAPI (run 2), over 25 µM.
`COc1ccc(CC(N)c2csc(NC(=O)NCc3ccccc3)n2)cc1` (stereo not drawn): the IC50 in the assay on TAG (mean of runs) is 17.9 µM (inactive); in the assay with TAG (run 1) it was 20.2 µM; in the assay on TAG (run 2), 15.5 µM. Moreover, the IC50 cytotoxicity (DAPI nuclear signal decrease) in the assay on DAPI (mean of runs) was > 25 µM (inactive); in the assay with DAPI (run 1), over 25 µM; in the assay on DAPI (run 2) it was over 25 µM.
Consider `COc1ccc2c(c1)c(CC(=O)Nc1ccc(C)cc1)c(C)n2C(=O)c1ccc(Cl)cc1`, for which the IC50 is 20.1 µM with TAG (run 1) and over 25 µM with TAG (run 2). Moreover, the values for the IC50 cytotoxicity (DAPI nuclear signal decrease) in the assay on DAPI (mean of runs), with DAPI (run 1) and in the assay on DAPI (run 2) were > 25 µM (inactive), over 25 µM and over 25 µM, respectively.
Turning to `CCCCCc1cc(=O)oc2c(C(CCN(CC)CC)c3cc(OC)c(OC)c(OC)c3)c(OC)cc(OC)c12` (stereo not drawn), the figures for the IC50 in the assay on TAG (mean of runs), with TAG (run 1) and in the assay on TAG (run 2) were > 25 µM (inactive), over 25 µM and over 25 µM, respectively. Also, the IC50 cytotoxicity (DAPI nuclear signal decrease) with DAPI (mean of runs) is > 25 µM (inactive); in the assay with DAPI (run 1), over 25 µM; in the assay on DAPI (run 2), over 25 µM.
As for `CCN1CCN(Cc2ccc(NC(=O)c3cc(NC(=O)c4cncc(-c5cccs5)c4)cc(OC)c3)cc2C(F)(F)F)CC1`, the results for the IC50 in the assay with TAG (mean of runs), in the assay on TAG (run 1) and in the assay on TAG (run 2) were 10.5 µM, 12.4 µM and 8.55 µM, respectively. The IC50 cytotoxicity (DAPI nuclear signal decrease) with DAPI (mean of runs) is > 25 µM (inactive); in the assay with DAPI (run 1), over 25 µM; in the assay on DAPI (run 2), over 25 µM.
For `Cc1nn2c(N3CCN(C)CC3)c3c(nc2c1-c1ccccc1)CCCC3`, the IC50 in the assay on TAG (mean of runs) was > 25 µM (inactive); in the assay with TAG (run 1) it was over 25 µM; with TAG (run 2), over 25 µM. Besides, the IC50 cytotoxicity (DAPI nuclear signal decrease) in the assay with DAPI (mean of runs) was > 25 µM (inactive); with DAPI (run 1), over 25 µM; in the assay on DAPI (run 2) it was over 25 µM.
On to `COC(=O)C=C1CCC2C3CCC4=CC(=O)C(Br)CC4(C)C3C(=O)CC12C` (stereo not drawn), for which the results for the IC50 with TAG (mean of runs), with TAG (run 1) and in the assay on TAG (run 2) were 9.84 µM, 9.51 µM and 10.2 µM, respectively. Further, the IC50 cytotoxicity (DAPI nuclear signal decrease) in the assay with DAPI (run 1) was over 25 µM; in the assay with DAPI (run 2), 22.3 µM.
On to `O=c1cc(-c2ccccc2)[nH]c2ccc(F)cc12`, for which the IC50 in the assay with TAG (mean of runs) was > 25 µM (inactive); in the assay on TAG (run 1) it was over 25 µM; with TAG (run 2), over 25 µM. The values for the IC50 cytotoxicity (DAPI nuclear signal decrease) in the assay with DAPI (mean of runs), with DAPI (run 1) and in the assay with DAPI (run 2) were > 25 µM (inactive), over 25 µM and over 25 µM, respectively.
Regarding `COc1ccc(Nc2cc(=O)oc3ccccc23)cc1`, the values for the IC50 with TAG (mean of runs), in the assay with TAG (run 1) and in the assay on TAG (run 2) were > 25 µM (inactive), over 25 µM and over 25 µM, respectively. The IC50 cytotoxicity (DAPI nuclear signal decrease) is > 25 µM (inactive) in the assay on DAPI (mean of runs), over 25 µM in the assay with DAPI (run 1) and over 25 µM in the assay with DAPI (run 2).
For the compound `COCCCNC(=O)C(=O)Nc1ccc2c(c1)N(S(=O)(=O)c1cccs1)CCC2`, the IC50 was 7.64 µM in the assay on TAG (run 1) and over 25 µM with TAG (run 2). The IC50 cytotoxicity (DAPI nuclear signal decrease) with DAPI (mean of runs) is > 25 µM (inactive); in the assay on DAPI (run 1) it was over 25 µM; with DAPI (run 2), over 25 µM.
On to `CCO[C@@H]1OC(C(=O)N2CCN(Cc3ccccc3)CC2)=C[C@H](c2ccc(C(F)(F)F)cc2)[C@H]1CCCO`, for which the figures for the IC50 in the assay with TAG (mean of runs), in the assay with TAG (run 1) and in the assay on TAG (run 2) were 11.4 µM, 11.2 µM and 11.6 µM, respectively. Also, the IC50 cytotoxicity (DAPI nuclear signal decrease) was > 25 µM (inactive) in the assay on DAPI (mean of runs), over 25 µM with DAPI (run 1) and over 25 µM in the assay on DAPI (run 2).
`Cc1ccc(-c2nn(-c3ccccc3)cc2NC(=O)CCl)cc1`: the IC50 in the assay with TAG (mean of runs) was > 25 µM (inactive); in the assay with TAG (run 1) it was over 25 µM; in the assay with TAG (run 2), over 25 µM. Further, the IC50 cytotoxicity (DAPI nuclear signal decrease) in the assay on DAPI (run 1) was 20.6 µM; with DAPI (run 2), over 25 µM.
`CCCCCc1cc(=O)oc2c(C(CCN3CCN(c4ccccc4)CC3)c3ccc4c(c3)OCO4)c(OC)cc(OC)c12` (stereo not drawn): the half-maximal inhibitory concentration (IC50) in the assay on TAG (mean of runs) is 8.04 µM; in the assay on TAG (run 1), 8.42 µM; with TAG (run 2), 7.65 µM. Moreover, the IC50 cytotoxicity (DAPI nuclear signal decrease) with DAPI (mean of runs) is > 25 µM (inactive); with DAPI (run 1) it was over 25 µM; with DAPI (run 2) it was over 25 µM.
With `COc1ccc(CCNc2nnc(Sc3nnnn3-c3ccccc3)s2)cc1OC`, the IC50 is 10.3 µM in the assay with TAG (run 1) and over 25 µM in the assay on TAG (run 2). Moreover, the figures for the IC50 cytotoxicity (DAPI nuclear signal decrease) with DAPI (mean of runs), with DAPI (run 1) and in the assay on DAPI (run 2) were > 25 µM (inactive), over 25 µM and over 25 µM, respectively.
Regarding `COc1ccc(S(=O)(=O)N(C)C[C@@H]2OCCCC[C@H](C)Oc3ccc(NC(=O)Nc4ccc(C(F)(F)F)cc4)cc3C(=O)N([C@H](C)CO)C[C@H]2C)cc1`, the IC50 was > 25 µM (inactive) in the assay on TAG (mean of runs), over 25 µM with TAG (run 1) and over 25 µM in the assay with TAG (run 2). The IC50 cytotoxicity (DAPI nuclear signal decrease) in the assay on DAPI (mean of runs) was > 25 µM (inactive); with DAPI (run 1), over 25 µM; in the assay on DAPI (run 2), over 25 µM.
Consider `CCOCCC(=O)Nc1ccc2c(c1)c(=O)n(C)n2C/C=C/c1ccccc1`, for which the IC50 was > 25 µM (inactive) with TAG (mean of runs), over 25 µM in the assay with TAG (run 1) and over 25 µM in the assay with TAG (run 2). Besides, the IC50 cytotoxicity (DAPI nuclear signal decrease) in the assay with DAPI (mean of runs) is > 25 µM (inactive); in the assay on DAPI (run 1) it was over 25 µM; in the assay on DAPI (run 2), over 25 µM.
Turning to `CCCCNc1c(-c2ccc(-c3ccc(C(C)=O)cc3)c(OC)c2)nc2cc(C)ccn12`, the values for the IC50 in the assay on TAG (run 1) and with TAG (run 2) were over 25 µM and 22.5 µM, respectively. Besides, the IC50 cytotoxicity (DAPI nuclear signal decrease) was > 25 µM (inactive) in the assay with DAPI (mean of runs), over 25 µM in the assay with DAPI (run 1) and over 25 µM with DAPI (run 2).
In the case of `CCCCCCC(C)(C)c1ccc([C@@H]2C[C@H](O)CC[C@H]2CCCO)c(O)c1`, the IC50 with TAG (mean of runs) was 9.3 µM; in the assay on TAG (run 1) it was 7.71 µM; in the assay with TAG (run 2) it was 10.9 µM. The IC50 cytotoxicity (DAPI nuclear signal decrease) in the assay on DAPI (mean of runs) was 22 µM (inactive); in the assay on DAPI (run 1) it was 23.7 µM; with DAPI (run 2), 20.2 µM.
